Consider 22 compounds from patent publication US9540343B2 (Gilead Sciences, Inc., priority 2011, dated 2017).

Molecules are shown by their SMILES. Some results are limits rather than exact numbers.

One data set has as its system HIV-IIIb. The experiment in a line: Test A: Antiviral assay in MT4 cells. Format: cell-based, HIV-1. The settings on record: Human immunodeficiency virus 1, IIIB, MT4, 120 h, read-out: % inhibition at 2 μM, percent inhibition of virus-induced cell killing, from dose response curve at 2 uM drug; MT-4 cells infected with HIV-IIIb, 5 days, CellTiter-Glo.
Another data set can be described thus: in vitro. The note with it: human, uninfected MT-4 cells, CC50 (nM), same protocol as Test A, CellTiter-Glo. Summed up: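 Cytoprotection read-out: CellTiter-Glo chemiluminescence after 5 days at 37 °C of HIV-IIIb-infected MT-4 cells (m.o.i. 0.003) with compound in 10-point 3-fold dilutions, quadruplicate, 10% FBS. Cytotoxicity (CC50) measured identically without virus.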

On to `CC12CCC(c3c(C(F)(F)F)nn(CC(=O)N[C@@H](Cc4cc(F)cc(F)c4)c4ncccc4-c4ccc(F)c(C(N)=O)c4)c31)C2(C)C` (stereo partly drawn) [Example 74D, (S)-5-(2-(2-(3,5-difluorophenyl)-1-(2-(L-4,5,6,7-Tetrahydro-3-trifluoromethyl-7,8,8-trimethyl-1H-4,7-(methano)indazol-1-yl)acetamido)ethyl)pyridin-3-yl)-2-fluorobenzamide], for which the inhibition (as a rule, the drop in the measured response relative to a control, in per cent) at 2 µM in the data set on HIV-IIIb was determined as 4%. The CC50 (usually the concentration at which the toxic effect on the cells reaches its halfway point) at 5 days in the data set “in vitro” was 8470 nM.
On the same counts, the results for `Cc1ccc2cc(-c3cccnc3[C@H](Cc3cc(F)cc(F)c3)NC(=O)Cn3nc(C(F)F)c4c3C(F)(F)C3CC43)ccc2n1` (stereo partly drawn) [Example 75, (S)—N-(1-(3-(2-methylquinoline-6-yl)-pyridin-2-yl)-2-(3,5-difluorophenyl)ethyl)-2-(3-(difluoromethyl)-5,6-dihydro-4,5-(methano)-6,6-difluoro-cyclopenta[c]pyrazol-1(4H)-yl)acetamide] are 17% and 10700 nM.
For the compound `Cc1cccc(-c2cccnc2[C@H](Cc2cc(F)cc(F)c2)NC(=O)Cn2nc(C(F)(F)F)c3c2CCCC3)c1` [Example 76, (S)—N-(2-(3,5-difluorophenyl)-1-(3-m-tolylpyridin-2-yl)ethyl)-2-(3-(trifluoromethyl)-4,5,6,7-tetrahydro-1H-indazol-1-yl)acetamide], in the data set with HIV-IIIb, the inhibition at 2 µM was determined as 20%. Besides, in the data set “in vitro”, half-maximal cytotoxicity (CC50 at 5 days) was put at 11500 nM.
On the same counts, the results for `O=C(Cn1nc(C(F)F)c2c1C(F)(F)C1CC21)N[C@@H](Cc1cc(F)cc(F)c1)c1ncccc1-c1cnc2cc[nH]c2c1` (stereo partly drawn) [Example 77, (S)—N-(1-(3-(1H-pyrrolo[3,2-b]pyridine-6-yl)-pyridin-2-yl)-2-(3,5-difluorophenyl)ethyl)-2-(3-(difluoromethyl)-5,6-dihydro-4,5-(methano)-6,6-difluoro-cyclopenta[c]pyrazol-1(4H)-yl)acetamide] are 65% and 12400 nM.
In the case of `O=C(Cc1c[nH]c2ccc(F)cc12)N[C@@H](Cc1cc(F)cc(F)c1)c1ncccc1-c1ccc(Cl)cc1Cl` [Example 78, (S)—N-(1-(3-(2,4-dichlorophenyl)pyridin-2-yl)-2-(3,5-difluorophenyl)ethyl)-2-(5-fluoro-1H-indol-3-yl)acetamide], the inhibition at 2 µM with HIV-IIIb is 11%. In “in vitro”, this compound yielded a CC50 at 5 days of 7890 nM.
Take `NC(=O)c1cc(-c2cccnc2[C@H](Cc2cc(F)cc(F)c2)NC(=O)Cn2nc(C(F)(F)F)c3c2CCCC3=O)ccc1F` [Example 79F, (S)-5-(2-(2-(3,5-difluorophenyl)-1-(2-(4-oxo-3-(trifluoromethyl)-4,5,6,7-tetrahydro-1H-indazol-1-yl)acetamido)ethyl)pyridin-3-yl)-2-fluorobenzamide]: the inhibition at 2 µM with HIV-IIIb turned out to be 19%. Also, the CC50 at 5 days in “in vitro” was greater than 50600 nM.
On the same counts, the results for `CCOC(=O)c1nn(CC(=O)N[C@@H](Cc2cc(F)cc(F)c2)c2ncccc2-c2ccc(F)c(C(N)=O)c2)c2c1CC1CC2C1` [Example 81D, (S)-5-(2-(2-(3,5-difluorophenyl)-1-(2-(4,5,6,7-tetrahydro-3-carboethoxy-5,7-(methano)indazol-1-yl)acetamido)ethyl)pyridin-3-yl)-2-fluorobenzamide] are 75% and 16700 nM.
The matching figures for `O=C(Cc1c[nH]c2ccc(F)cc12)N[C@@H](Cc1cc(F)cc(F)c1)c1ncccc1-c1ccc(S(=O)(=O)N2CCOCC2)cc1` [Example 82, (S)—N-(2-(3,5-difluorophenyl)-1-(3-(4-(morpholinosulfonyl)phenyl)pyridin-2-yl)ethyl)-2-(5-fluoro-1H-indol-3-yl)acetamide]: 114% and 19300 nM.
The matching figures for `O=C(Cn1nc(C(F)(F)F)c2c1CCCC2)N[C@@H](Cc1cc(F)cc(F)c1)c1ncccc1-c1cccc(OC(F)(F)F)c1` [Example 84, (S)—N-(2-(3,5-difluorophenyl)-1-(3-(3-(trifluoromethoxy)phenyl)pyridin-2-yl)ethyl)-2-(3-(trifluoromethyl)-4,5,6,7-tetrahydro-1H-indazol-1-yl)acetamide]: 18% and 9050 nM.
Turning to `O=C(Cn1nc(C(F)F)c2c1C(F)(F)C1CC21)N[C@@H](Cc1cc(F)cc(F)c1)c1ncccc1-c1cnc2nccnc2c1` (stereo partly drawn) [Example 85, (S)—N-(1-(3-(pyrido[2,3-b]pyrazin-7-yl)-pyridin-2-yl)-2-(3,5-difluorophenyl)ethyl)-2-(3-(difluoromethyl)-5,6-dihydro-4,5-(methano)-6,6-difluoro-cyclopenta[c]pyrazol-1(4H)-yl)acetamide], the inhibition at 2 µM in the data set on HIV-IIIb was found to be 9%. The same compound had a CC50 at 5 days in “in vitro” of 43000 nM.
In the case of `NC(=O)c1cccc(-c2cccnc2[C@H](Cc2cc(F)cc(F)c2)NC(=O)Cc2c[nH]c3cc(F)ccc23)c1` [Example 86, (S)-3-(2-(2-(3,5-difluorophenyl)-1-(2-(6-fluoro-1H-indol-3-yl)acetamido)ethyl)pyridin-3-yl)benzamide], the inhibition at 2 µM in the data set on HIV-IIIb was determined as 97%. In the data set “in vitro”, this compound showed a 50% cytotoxic concentration (CC50) at 5 days of 21400 nM.
`NC(=O)c1cc(-c2cccnc2[C@H](Cc2cc(F)cc(F)c2)NC(=O)Cn2nc(C(F)F)c3c2C2CC(C3)C2)ccc1F` [Example 87, (S)-5-(2-(2-(3,5-difluorophenyl)-1-(2-(4,5,6,7-tetrahydro-3-difluoromethyl-5,7-(methano)indazol-1-yl)acetamido)ethyl)pyridin-3-yl)-2-fluorobenzamide]: in the data set with HIV-IIIb, the inhibition at 2 µM is 101%. In the data set “in vitro”, this compound showed a CC50 at 5 days of 21600 nM.
On the same counts, the results for `NC(=O)c1cc(-c2cccnc2[C@H](Cc2cc(F)cc(F)c2)NC(=O)Cn2cc(C(F)(F)F)nc2C2CC2)ccc1F` [Example 88E, (S)-5-(2-(1-(2-(2-cyclopropyl-4-(trifluoromethyl)-1H-imidazol-1-yl)acetamido)-2-(3,5-difluorophenyl)ethyl)pyridin-3-yl)-2-fluorobenzamide] are 44% and greater than 53200 nM.
As for `Cc1cc(-c2cccnc2[C@H](Cc2cc(F)cc(F)c2)NC(=O)Cn2nc(C(F)(F)F)c3c2CCCC3)cnc1F` [Example 89, (S)—N-(2-(3,5-difluorophenyl)-1-(6′-fluoro-5′-methyl-3,3′-bipyridin-2-yl)ethyl)-2-(3-(trifluoromethyl)-4,5,6,7-tetrahydro-1H-indazol-1-yl)acetamide], the inhibition at 2 µM in the data set with HIV-IIIb was determined as 73%. Further, in the data set “in vitro”, the CC50 at 5 days came out at 10700 nM.
Regarding `CCOC(=O)c1nn(CC(=O)N[C@@H](Cc2cc(F)cc(F)c2)c2ncccc2-c2ccc(F)c(C(N)=O)c2)c2c1C1CCC2C1` (stereo partly drawn) [Example 90F, (S)-5-(2-(2-(3,5-difluorophenyl)-1-(2-(4,5,6,7-tetrahydro-3-carboethoxy-4,7-(methano)indazol-1-yl)acetamido)ethyl)pyridin-3-yl)-2-fluorobenzamide], the inhibition at 2 µM in the data set with HIV-IIIb was 13%. Also, in the data set “in vitro”, the CC50 at 5 days worked out at 34600 nM.
The matching figures for `NC(=O)c1cc(-c2cccnc2[C@H](Cc2cc(F)cc(F)c2)NC(=O)Cn2cc(C(F)(F)F)nc2COCc2ccccc2)ccc1F` [Example 91B, (S)-5-(2-(1-(2-(2-(benzyloxymethyl)-4-(trifluoromethyl)-1H-imidazol-1-yl)acetamido)-2-(3,5-difluorophenyl)ethyl)pyridin-3-yl)-2-fluorobenzamide]: 17% and 22000 nM.
As to `O=C(Cc1c[nH]c2ccc(F)cc12)N[C@@H](Cc1cc(F)cc(F)c1)c1ncccc1-c1cccc(OCc2ccccc2)c1` [Example 92, (S)—N-(1-(3-(3-(benzyloxy)phenyl)pyridin-2-yl)-2-(3,5-difluorophenyl)ethyl)-2-(5-fluoro-1H-indol-3-yl)acetamide], the inhibition at 2 µM in the data set with HIV-IIIb turned out to be 0%. For the same compound, in the data set “in vitro”, half-maximal cytotoxicity (CC50 at 5 days) was put at 10300 nM.
Take `Cc1noc(C)c1-c1cccnc1[C@H](Cc1cc(F)cc(F)c1)NC(=O)Cc1c[nH]c2ccc(F)cc12` [Example 94, N-((1S)-2-(3,5-difluorophenyl)-1-(3-(3,5-dimethylisoxazol-4-yl)pyridin-2-yl)ethyl)-2-(5-fluoro-1H-indol-3-yl)acetamide]: in the data set with HIV-IIIb, the inhibition at 2 µM is 3%. This compound came in with a CC50 at 5 days in the data set “in vitro” of 42000 nM.
`N#Cc1cccc(-c2cccnc2[C@H](Cc2cc(F)cc(F)c2)NC(=O)Cn2ccc3ccccc32)c1` [Example 95C, (S)—N-(1-(3-(3-cyanophenyl)pyridin-2-yl)-2-(3,5-difluorophenyl)ethyl)-2-(1H-indol-1-yl)acetamide]: the inhibition at 2 µM with HIV-IIIb was determined as 14%. Moreover, the midpoint of cytotoxicity in the data set “in vitro”, the CC50 at 5 days, lay at 14600 nM.
Regarding `NC(=O)c1cc(-c2cccnc2[C@H](Cc2cc(F)cc(F)c2)NC(=O)Cn2nc(C=O)c3c2C2CC(C3)C2)ccc1F` [Example 96, (S)-5-(2-(2-(3,5-difluorophenyl)-1-(2-(4,5,6,7-tetrahydro-3-formyl-5,7-(methano)indazol-1-yl)acetamido)ethyl)pyridin-3-yl)-2-fluorobenzamide], in the data set on HIV-IIIb, the inhibition at 2 µM came out at 104%. The compound also registered a CC50 at 5 days in “in vitro” of 9620 nM.
The matching figures for `O=C(Cn1nc(C(F)F)c2c1C(F)(F)C1CC21)N[C@@H](Cc1cc(F)cc(F)c1)c1ncccc1-c1ccc2cccnc2c1` (stereo partly drawn) [Example 97, (S)—N-(1-(3-(quinoline-7-yl)-pyridin-2-yl)-2-(3,5-difluorophenyl)ethyl)-2-(3-(difluoromethyl)-5,6-dihydro-4,5-(methano)-6,6-difluoro-cyclopenta[c]pyrazol-1(4H)-yl)acetamide]: 27% and 33900 nM.
`O=C(Cn1nc(C(F)F)c2c1C(F)(F)C1CC21)N[C@@H](Cc1cc(F)cc(F)c1)c1ncccc1-c1ccc(S(=O)(=O)NC2CCCCC2)cc1` (stereo partly drawn) [Example 98, (S)—N-(1-(3-(4-(N-cyclohexylsulfamoyl)phenyl)-pyridin-2-yl)-2-(3,5-difluorophenyl)ethyl)-2-(3-(difluoromethyl)-5,6-dihydro-4,5-(methano)-6,6-difluoro-cyclopenta[c]pyrazol-1(4H)-yl)acetamide]: in the data set with HIV-IIIb, the inhibition at 2 µM was determined as 13%. The same compound registered a CC50 at 5 days in the data set “in vitro” of 18000 nM.
